Among the data in US12662491B2 (Redona Therapeutics, Inc., priority 2020, dated 2026) are IC50 values, retold here.

The target of one assay is T1, Zcchc11 enzyme (Homo sapiens, UniProt Q5TAX3).
T1 construct: made in house; host or cells: HEK293 cells (Zcchc11); E. coli Rosetta II (LIN28A)
T1 sequence (Q5TAX3 212-1420): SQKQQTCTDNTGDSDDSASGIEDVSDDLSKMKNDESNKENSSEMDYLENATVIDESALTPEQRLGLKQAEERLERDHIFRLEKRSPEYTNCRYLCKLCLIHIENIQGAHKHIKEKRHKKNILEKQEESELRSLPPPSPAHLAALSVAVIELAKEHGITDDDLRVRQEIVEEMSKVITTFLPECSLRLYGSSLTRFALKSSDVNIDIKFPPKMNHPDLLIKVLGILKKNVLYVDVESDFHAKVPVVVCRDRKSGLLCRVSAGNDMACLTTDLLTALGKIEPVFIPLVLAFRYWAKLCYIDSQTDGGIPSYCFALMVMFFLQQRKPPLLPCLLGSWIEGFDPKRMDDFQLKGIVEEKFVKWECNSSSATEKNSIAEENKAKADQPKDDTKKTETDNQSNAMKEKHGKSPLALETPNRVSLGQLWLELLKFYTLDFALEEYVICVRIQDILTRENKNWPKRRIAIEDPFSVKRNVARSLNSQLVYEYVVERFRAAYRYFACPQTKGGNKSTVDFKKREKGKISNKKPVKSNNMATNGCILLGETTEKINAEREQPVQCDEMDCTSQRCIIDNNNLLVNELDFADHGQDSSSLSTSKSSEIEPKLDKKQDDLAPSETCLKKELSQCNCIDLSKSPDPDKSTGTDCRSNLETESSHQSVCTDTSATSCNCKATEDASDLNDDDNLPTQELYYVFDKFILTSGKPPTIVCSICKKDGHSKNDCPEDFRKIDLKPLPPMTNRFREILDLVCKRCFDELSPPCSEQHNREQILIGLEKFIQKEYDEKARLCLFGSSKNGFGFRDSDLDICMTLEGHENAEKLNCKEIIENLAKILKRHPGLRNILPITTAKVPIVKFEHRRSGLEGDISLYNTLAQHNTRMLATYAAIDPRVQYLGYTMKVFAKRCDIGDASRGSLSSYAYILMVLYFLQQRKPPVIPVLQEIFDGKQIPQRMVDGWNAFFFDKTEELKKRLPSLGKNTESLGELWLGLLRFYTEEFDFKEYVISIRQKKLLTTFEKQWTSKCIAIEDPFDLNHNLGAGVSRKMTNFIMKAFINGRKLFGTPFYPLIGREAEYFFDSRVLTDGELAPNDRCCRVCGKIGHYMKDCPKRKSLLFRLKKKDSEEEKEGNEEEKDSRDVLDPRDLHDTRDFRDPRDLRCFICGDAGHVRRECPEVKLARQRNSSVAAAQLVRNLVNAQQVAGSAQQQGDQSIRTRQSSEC
Description: TUTase assay (Zcchc11 assay, Lin28a-dependent polyuridylation of pre-let-7). In kind it is biochemical. The note with it: Lin28a-dependent Zcchc11 (Z11) TUTase activity; read-out: Potency Lin28a-dep Z11 IC50. In a few lines: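 Potency is measured as inhibition of LIN28A-driven U-tail addition to 2 nM pre-let-7 by 0.2 nM HEK293-derived Zcchc11 fragment with 5 uM UTP at room temperature. Tail growth appears as fluorescein quenching by an annealing rhodamine-A20 probe.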
Broadly, the IC50 is the midpoint of a concentration-inhibition curve. Turning to `CN(C)C1CN(c2ccc(-n3cc(C(=O)O)c(=O)c4ccc(N5C(=O)CC[C@@H]5COc5ncccc5Cl)cc43)cn2)C1` [Compound 249, (R)-7-(2-(((3-chloropyridin-2-yl)oxy)methyl)-5-oxopyrrolidin-1-yl)-1-(6-(3-(dimethyl-amino)azetidin-1-yl)pyridin-3-yl)-4-oxo-1,4-dihydro-quinoline-3-carboxylic acid], the concentration for half-maximal inhibition (IC50) is 1000 to 10000 nM.
Same read-out and setting: next, `CN(C)C1CN(c2ccc(-n3cc(C(=O)O)c(=O)c4cc(C#N)c(N5C[C@@H]6C[C@@H]6C5COc5ncccc5F)cc43)cn2)C1` (stereo partly drawn) [Compound 293, 6-cyano-1-(6-(3-(dimethyl-amino)azetidin-1-yl)pyridin-3-yl)-7-((1S,5R)-2-(((3-fluoropyridin-2-yl)oxy)methyl)-3-azabicyclo [3.1.0]hexan-3-yl)-4-oxo-1,4-dihydro-quinoline-3-carboxylic acid]: no more than 1000 nM.
The same measure, in the same setting: next, `CN(C)C1CN(c2ccc(-n3cc(C(=O)O)c(=O)c4cc(C#N)c(N5CCC[C@]5(C)COc5ncccc5F)cc43)cn2)C1` [Compound 284, (R)-6-cyano-1-(6-(3-(dimethyl-amino)azetidin-1-yl)pyridin-3-yl)-7-(2-(((3-fluoropyridin-2-yl)oxy)methyl)-2-methyl-pyrrolidin-1-yl)-4-oxo-1,4-dihydro-quinoline-3-carboxylic acid]: no more than 1000 nM.
The same measure, in the same setting: under `COc1ccc(Cl)c(OC[C@H]2CCCN2c2cc3c(cc2C)c(=O)c(C(=O)O)cn3-c2ccc(N3CC(N(C)C)C3)nc2)n1` [Compound 206, (R)-7-(2-(((3-chloro-6-methoxy-pyridin-2-yl)oxy)methyl)pyrrolidin-1-yl)-1-(6-(3-(dimethyl-amino)azetidin-1-yl)pyridin-3-yl)-6-methyl-4-oxo-1,4-dihydro-quinoline-3-carboxylic acid] stands no more than 1000 nM; under `CN(C)C1CN(c2ccc(-n3cc(C(=O)O)c(=O)c4cc(F)c(N5CC(c6cccnc6)C[C@@H]5COc5ncccc5Cl)cc43)cn2)C1` (single isomer, unassigned) [Compound 328], no more than 1000 nM.
Regarding `O=C(O)c1cn2c3cc(c(F)cc3c1=O)N1CCC[C@@H]1COc1ncccc1OCCOc1ccc-2cc1` (racemic) [Compound 312, rac-(R)-26-fluoro-24-oxo-21,24-dihydro-5,7,10-trioxa-2(1,7)-quinolina-6(2,3)-pyridina-3(1,2)-pyrrolidina-1(1,4)-benzenacyclo-decaphane-23-carboxylic acid formic acid], the IC50 was greater than 50000 nM.
Turning to `CN(C)C(=O)OC[C@H]1CCCN1c1cc2c(cc1Cl)c(=O)c(C(=O)O)cn2-c1ccc(N2CC(N(C)C)C2)nc1` (racemic) [Compound 195, rac-(R)-6-chloro-1-(6-(3-(dimethyl-amino)azetidin-1-yl)pyridin-3-yl)-7-(2-(((dimethylcarbamoyl)oxy)methyl)pyrrolidin-1-yl)-4-oxo-1,4-dihydro-quinoline-3-carboxylic acid formic acid], the half-inhibitory concentration (IC50) is no more than 1000 nM.
In the case of `CC(C)C1C[C@H](COc2ncccc2Cl)N(c2cc3c(cc2Cl)c(=O)c(C(=O)O)cn3-c2ccc(N3CC(N(C)C)C3)nc2)C1` (mixture of isomers) [Compound 223, Rac-6-chloro-7-((2R)-2-(((3-chloropyridin-2-yl)oxy)methyl)-4-isopropyl-pyrrolidin-1-yl)-1-(6-(3-(dimethyl-amino)azetidin-1-yl)pyridin-3-yl)-4-oxo-1,4-dihydro-quinoline-3-carboxylic acid], the IC50 is no more than 1000 nM.
Same read-out and setting: under `O=C(O)c1cn(-c2ccc(F)c(O)c2)c2cc(N3CCC[C@@H]3COc3ncccc3Cl)c(Cl)cc2c1=O` [Compound 130, (R)-6-chloro-7-(2-(((3-chloropyridin-2-yl)oxy)methyl)pyrrolidin-1-yl)-1-(4-fluoro-3-hydroxy-phenyl)-4-oxo-1,4-dihydro-quinoline-3-carboxylic acid] stands no more than 1000 nM; under `COc1ccc(Cl)c(OC[C@H]2CC(c3cn[nH]c3)CN2c2cc3c(cc2F)c(=O)c(C(=O)O)cn3-c2ccc(N3CC(N(C)C)C3)nc2)n1` (stereo partly drawn) [Compound 352, 7-((2R)-2-(((3-chloro-6-methoxy-pyridin-2-yl)oxy)methyl)-4-(1H-pyrazol-4-yl)pyrrolidin-1-yl)-1-(6-(3-(dimethyl-amino)azetidin-1-yl)pyridin-3-yl)-6-fluoro-4-oxo-1,4-dihydro-quinoline-3-carboxylic acid compound with formic acid (1:1)], no more than 1000 nM.
The same measure, in the same setting: under `O=C(O)c1cn(-c2cnccn2)c2cc(N3CCC[C@@H]3COc3ncccc3F)c(Cl)cc2c1=O` [Compound 213, 6-Chloro-7-[(2R)-2-{[(3-fluoropyridin-2-yl)oxy]methyl}pyrrolidin-1-yl]-4-oxo-1-(pyrazin-2-yl)quinoline-3-carboxylic acid] stands no more than 1000 nM.
Still for that read-out and setting: next, `CC1(n2cc(C(=O)O)c(=O)c3cc(Cl)c(N4C(=O)CC[C@H]4COc4ccccn4)cc32)CC1` [Compound 288, (S)-6-chloro-1-(1-methylcyclo-propyl)-4-oxo-7-(2-oxo-5-((pyridin-2-yloxy)methyl)pyrrolidin-1-yl)-1,4-dihydro-quinoline-3-carboxylic acid]: greater than 50000 nM.

The assay is the same for the next values; noted with them: Lin28a-dependent Zcchc11 (Z11) TUTase assay; read-out: Potency Lin28a-dep Z11 IC50.
With `COc1cccc(-n2cc(C(=O)O)c(=O)c3cc(F)c(N4CCC[C@@H]4COc4ccccn4)cc32)c1` [Example 399, (R)-6-fluoro-1-(3-methoxyphenyl)-4-oxo-7-(2-((pyridin-2-yloxy)methyl)pyrrolidin-1-yl)-1,4-dihydroquinoline-3-carboxylic acid], the half-inhibitory concentration (IC50) is no more than 1000 nM.
On the same count and under the same terms, next, `COc1ccc(Cl)c(OC[C@H]2CC(C)CN2c2cc3c(cc2Cl)c(=O)c(C(=O)O)cn3-c2ccc(N3CC(N(C)C)C3)nc2)n1` (stereo partly drawn) [Example 625, 6-chloro-7-((2R)-2-(((3-chloro-6-methoxypyridin-2-yl)oxy)methyl)-4-methylpyrrolidin-1-yl)-1-(6-(3-(dimethylamino)azetidin-1-yl)pyridin-3-yl)-4-oxo-1,4-dihydroquinoline-3-carboxylic acid]: no more than 1000 nM.
On to `O=C(O)c1cn(-c2ccc(CO)nc2)c2cc(N3CCC[C@@H]3COc3ncccc3Cl)c(Cl)cc2c1=O` [Example 429, (R)-6-chloro-7-(2-(((3-chloropyridin-2-yl)oxy)methyl)pyrrolidin-1-yl)-1-(6-(hydroxymethyl)pyridin-3-yl)-4-oxo-1,4-dihydroquinoline-3-carboxylic acid], for which the IC50 was no more than 1000 nM.
On the same count and under the same terms, under `Cc1cc(-n2cc(C(=O)O)c(=O)c3cc(F)c(N4CCC[C@@H]4COc4ccccn4)cc32)ccc1O` [Example 395, (R)-6-fluoro-1-(4-hydroxy-3-methylphenyl)-4-oxo-7-(2-((pyridin-2-yloxy)methyl)pyrrolidin-1-yl)-1,4-dihydroquinoline-3-carboxylic acid] stands 1000 to 10000 nM; under `O=C(O)c1cn(-c2cnccn2)c2cc(N3C[C@@H](F)C[C@H]3COc3ncccc3Cl)c(Cl)cc2c1=O` [Example 519, 6-chloro-7-((2S,4S)-2-(((3-chloropyridin-2-yl)oxy)methyl)-4-fluoropyrrolidin-1-yl)-4-oxo-1-(pyrazin-2-yl)-1,4-dihydroquinoline-3-carboxylic acid], no more than 1000 nM; under `CN1CCn2nc(-n3cc(C(=O)O)c(=O)c4cc(C#N)c(N5CCC[C@@H]5COc5ncccc5Cl)cc43)cc2C1` [Example 561, (R)-7-(2-(((3-chloropyridin-2-yl)oxy)methyl)pyrrolidin-1-yl)-6-cyano-1-(5-methyl-4,5,6,7-tetrahydropyrazolo [1,5-a]pyrazin-2-yl)-4-oxo-1,4-dihydroquinoline-3-carboxylic acid], no more than 1000 nM.
The same measure, in the same setting: under `O=C(O)c1cn(C2CC(CO)C2)c2cc(N3CCC[C@@H]3COc3ccccn3)c(F)cc2c1=O` (stereo partly drawn) [Example 453, (R)-6-fluoro-1-(3-(hydroxymethyl)cyclobutyl)-4-oxo-7-(2-((pyridin-2-yloxy)methyl)pyrrolidin-1-yl)-1,4-dihydroquinoline-3-carboxylic acid] stands 10000 to 50000 nM.
